Assay results as given in patent US11926598B1, “1-(4-nitrobenzylideneamino)-5-phenylimidazolidine-2,4-dione as an antimicrobial compound” (KING FAISAL UNIVERSITY, priority 2023, dated 2024).

Tests used:
Format in all cases: cell-based
[1] = test system: Escherichia coli; experiment: Agar plate disc-diffusion, antibacterial inhibition zone; conditions: Escherichia coli (Gram negative)
Experimental: (§1) The agar plate disc-diffusion method was applied. […] The discs were then placed onto the surface of agar plates (nutrient agar for bacteria and Sabouraud's dextrose agar for fungi) seeded with the test organism. Each plate contained 15 mL of the agar medium, previously seeded with 0.2 mL of the broth culture of each organism pregrown for 18 hours. The plates were incubated at 37° C. for 48 hours, and 72 hours for fungi. The inhibition zones was measured in millimeter. Discs impregnated with DMSO were used as a control, and its inhibition zone was subtracted from the tested compound actual inhibition zone.
(§2) The results of the antimicrobial testing can be observed in Tables 1 and 2, below, with ciprofloxacin serving as a reference.

[2] = test system: Staphylococcus aureus; experiment: as above; conditions: Staphylococcus aureus (Gram positive)
Experimental: as §1, §2

[3] = test system: Pseudomonas aeruginosa; experiment: as above; conditions: Pseudomonas aeruginosa (Gram negative)
Experimental: as §1, §2

[4] = test system: Bacillus Cereus; experiment: as above; conditions: Bacillus Cereus (Gram positive)
Experimental: as §1, §2

[5] = test system: Chrysosporium keratinophilum; experiment: Agar plate disc-diffusion, antifungal inhibition zone
Experimental: as §1, §2

[6] = test system: Aspergillus flavus; experiment: as above
Experimental: as §1, §2

[7] = A = concentration of comp. = 10,000 μL
[8] = B = concentration of comp. = 30.000 μL
[9] = C = concentration of comp. = 50,000 μL

Row | SMILES | inhibition zone [1, 7] | inhibition zone [1, 8] | inhibition zone [1, 9] | inhibition zone [2, 7] | inhibition zone [2, 8] | inhibition zone [2, 9] | inhibition zone [3, 7] | inhibition zone [3, 8] | inhibition zone [3, 9] | inhibition zone [4, 7] | inhibition zone [4, 8] | inhibition zone [4, 9] | inhibition zone [5, 7] | inhibition zone [5, 8] | inhibition zone [5, 9] | inhibition zone [6, 7] | inhibition zone [6, 8] | inhibition zone [6, 9]
1 | O=C(O)c1cn(C2CC2)c2cc(N3CCNCC3)c(F)cc2c1=O [Cip., ciprofloxacin] | 30 millimeter | 39 millimeter | 60 millimeter | 43 millimeter | 44 millimeter | 53 millimeter | 29 millimeter | 30 millimeter | 53 millimeter | 29 millimeter | 30 millimeter | 42 millimeter | 29 millimeter | 30 millimeter | 53 millimeter | 29 millimeter | 30 millimeter | 42 millimeter
2 | O=C1NC(=O)N(N=Cc2ccc([N+](=O)[O-])cc2)C1c1ccccc1 (stereo not drawn) [Compound 4, 1-(4-nitrobenzylideneamino)-5-phenylimidazolidine-2,4-dione] | 30 millimeter | 35 millimeter | 51 millimeter | 19 millimeter | 24 millimeter | 30 millimeter | 25 millimeter | 27 millimeter | 40 millimeter | 25 millimeter | 27 millimeter | 37 millimeter | 26 millimeter | 28 millimeter | 50 millimeter | 19 millimeter | 24 millimeter | 35 millimeter
